# Assays:
# [1] = tested on: λ-carrageenan induced neutrophil mediated inflammation of the footpad; assay: λ-carrageenan-induced footpad inflammation (footpad swelling); type: in vivo, BALB/c mice; conditions: for Footpad Thickness (+/− SE): Un-Methionated Thymosin Experiment (A), oxidised peptide
# Protocol: Experimental groups of 8-10 female BALB/c mice, 8-10 weeks of age, were housed in temperature controlled rooms and given food and water ad libitum. Observations and measurements were made by an investigator blinded to the experimental group. λ-Carrageenan injection. After measuring the baseline thickness of the hind footpads with a spring-loaded engineer's micrometer, mice were injected subcutaneously in both hind paws with 340 μg of λ-carrageenan in 40 μl. 6 h., 24 h., and 48 h. after the injection of λ-carrageenan, footpads were re-measured and swelling calculated by subtracting the baseline from the experimental measurements. For each mouse, increases in right and left footpad thickness were averaged. Thymosin peptides were injected as previously described [reference 8]: (i) intraperitoneally with 100 μl of 3.50×10^−5 M peptide solution, 30 minutes before footpad injection; (ii) intradermally into the footpad with 40 μl of 8.75×10^−5 M peptide solution and λ-carrageenan at time 0, and (iii) intraperitoneally with 100 μl of 3.50×10^−5 M peptide solution, 6 h. after footpad injection. For each group, the mean increase in footpad thickness was calculated, and compared to other groups using a one-tailed Student's t-test. The experiment was repeated four times. Statistics. Groups were compared for differences in the meaning using a one-tailed Student's t test; p<0.05 was considered statistically significant.
# [2] = tested on: DNFB-induced allergic contact dermatitis of ear skin; assay: DNFB allergic contact dermatitis (ACD) ear swelling assay; type: in vivo, FVB mice; conditions: for DNFB Ear Thickness (+/− SE): Un-Methionated Thymosin Experiment; for ear thickness: unit not given
# Protocol: Experimental groups of 8-10 female FVB mice, 8-10 weeks of age, were housed in temperature controlled rooms and given food and water ad libitum. Observations and measurements were made by an investigator blinded to the experimental group. Mice were sensitized on day 0 by epicutaneous application to razor-shaved abdominal skin of 25 μl of 0.5% DNFB in a mixture of acetone:olive oil (4:1). Before the challenge with DNFB, mice were injected (i) intraperitoneally with 100 μl of 3.50×10^−5 M thymosin peptide solution (30 minutes before DNFB) and (ii) intradermally with 40 μl of 8.75×10^−5 M peptide solution in both ears (1 min prior to DNFB challenge). On day 5, after measuring baseline ear thickness with an engineer's micrometer, mice were challenged by applying 10 μl of 0.2% DNFB in acetone:olive oil to each side of each ear. Ears were re-measured 6 h., 24 h., and 48 h. after challenge, and data expressed as the response above baseline (i.e., ear thickness 24 h. after challenge minus ear thickness immediately prior to challenge)±1 standard error of the mean (S.E.). For each mouse, increases in right and left ear thickness were averaged. The experiment was repeated twice. Statistics. Groups were compared for differences in the meaning using a one-tailed Student's t test; p<0.05 was considered statistically significant.
# [3] = tested on: λ-carrageenan induced neutrophil mediated inflammation of the footpad; conditions: oxidised form; reference 8; cited from earlier work
# [4] = tested on: human umbilical vein endothelial cells (HUVEC); conditions: references 8, 9; cited from earlier work
# [5] = tested on: neutrophil chemotaxis; conditions: chemically-synthesized peptide; reference 8; cited from earlier work
substance,measurement,setting,value
N-SDKPDMAEIEKFDKSKLKKTETQEKNPL-PSKETIEQEKQAGES-C (SEQ ID NO:1) [UTβ4],suppression of footpad inflammation relative to PBS,[1]; 6 h,12%
same,suppression of footpad inflammation relative to PBS,[1]; 24 h,30%
same,footpad thickness,"[1]; 24 h, unit not given",0.37±0.03
same,suppression of footpad inflammation relative to PBS,[1]; 48 h,31%
same,Footpad Thickness (+/− SE),[1]; forty-eight hours after λ-carrageenan,0.41 ± 0.04 mm
same,Footpad Thickness (+/− SE),"[1]; six hours after λ-carrageenan, increase over baseline",0.53 ± 0.03 mm
same,Footpad Thickness (+/− SE),[1]; twenty-four hours after λ-carrageenan,0.37 ± 0.03 mm
same,suppression of ACD ear swelling response relative to PBS,[2]; 6 h,−4%
same,ear swelling response compared to mice receiving PBS or UTβ4 (FIG. 4A),"[2]; 6 h, 24 h and 72 h after challenge",no significant suppression
same,suppression of ACD ear swelling response relative to PBS,[2]; 24 h,5%
same,suppression of ACD ear swelling response relative to PBS,[2]; 72 h,2%
same,DNFB Ear Thickness (+/− SE),[2]; forty-eight hours after challenge,19.90 ± 1.02 .01 mm
same,DNFB Ear Thickness (+/− SE),[2]; six hours after challenge,9.85 ± 0.66 .01 mm
same,DNFB Ear Thickness (+/− SE),[2]; twenty-four hours after challenge,22.68 ± 1.33 .01 mm
same,ear thickness,[2]; seventy-two hours,19.90±1.02
same,ear thickness,[2]; six hours,9.85±0.66
same,ear thickness,[2]; twenty-four hours,22.68±1.33
same,inhibition of λ-carrageenan-induced edema/inflammation in the mouse footpad,[3],active
same,closure of scratch wounds in endothelial cell and keratinocyte monolayers in vitro,[4],promote the closure
same,neutrophil chemotaxis in vitro,[5],inhibit neutrophil chemotaxis in vitro

# — patent US20090317457A1, “ANTI-INFLAMMATORY AND WOUND HEALING EFFECTS OF LYMPHOID THYMOSIN B-4” (Yale University, priority 2002, published 2009)
